Laboratory results taken from PubChem BioAssay (NCI).
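Exposure lasted 48 hours, with cells grown in 96-well plates and compounds tested at five concentrations. TGI denotes the concentration required for complete inhibition of growth.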

Experiments:
Assay in all cases: growth of human tumour cells (NCI), 48 h
[1] = tested on: OVCAR-3 ovarian
[2] = tested on: MDA-N
[3] = tested on: CAKI-1 renal
[4] = tested on: UO-31 renal
[5] = tested on: NCI-H460 lung
[6] = tested on: TK-10 renal
[7] = tested on: ACHN renal
[8] = tested on: A549 NSCLC
[9] = tested on: T-47D breast
[10] = tested on: HOP-62 NSCLC
[11] = tested on: 786-0 renal
[12] = tested on: SNB-19 CNS
[13] = tested on: SF-539 CNS
[14] = tested on: IGROV1 ovarian
[15] = tested on: HT29 colon
[16] = tested on: M14 melanoma
[17] = tested on: SN12C renal
[18] = tested on: SF-268 CNS
[19] = tested on: MDA-MB-231 breast
[20] = tested on: RPMI-8226 leukemia

Structure (SMILES)	TGI [1]	TGI [2]	TGI [3]	TGI [4]	TGI [5]	TGI [6]	TGI [7]	TGI [8]	TGI [9]	TGI [10]	TGI [11]	TGI [12]	TGI [13]	TGI [14]	TGI [15]	TGI [16]	TGI [17]	TGI [18]	TGI [19]	TGI [20]
Cc1c2cccc-2c(OCCO)cc2c3ccccc3n(C)c12	5.56 µM	16.1 µM	26.6 µM	10.6 µM	18.3 µM	23.4 µM	24 µM	15.5 µM	> 100 µM	16.1 µM	16.2 µM	18.6 µM	5.92 µM	7.77 µM	18.3 µM	12.2 µM	14.4 µM	25.6 µM	10 µM	–
CC(=O)O[C@H]1CC[C@@]2(C)C(=CC[C@H]3[C@@H]4C/C(=C\c5ccc(N(C)C)cc5)[C@H](OC(C)=O)[C@@]4(C)CC[C@@H]32)C1	41.8 µM	36 µM	–	27.7 µM	18.2 µM	35.6 µM	24.4 µM	31.7 µM	76.8 µM	51.6 µM	19.1 µM	27.3 µM	27.9 µM	28.4 µM	34.2 µM	36 µM	37.9 µM	26.7 µM	29.4 µM	> 100 µM
NCC(=O)Nc1ccc(S(=O)(=O)O)c2cc(S(=O)(=O)O)cc(S(=O)(=O)O)c12	> 100 µM	> 100 µM	> 100 µM	> 100 µM	–	> 100 µM	> 100 µM	> 100 µM	> 100 µM	> 100 µM	> 100 µM	> 100 µM	> 100 µM	> 100 µM	> 100 µM	> 100 µM	> 100 µM	> 100 µM	> 100 µM	> 100 µM
CCC(=O)O[C@H]1CC[C@H]2[C@@H]3CCC4=C/C(=N/OC(=O)c5cccc6cc7ccccc7nc56)CC[C@]4(C)[C@H]3CC[C@]12C	> 100 µM	> 100 µM	> 100 µM	–	> 100 µM	–	> 100 µM	> 100 µM	67.6 µM	> 100 µM	> 100 µM	> 100 µM	> 100 µM	> 100 µM	> 100 µM	> 100 µM	> 100 µM	> 100 µM	> 100 µM	> 100 µM
CC(=O)NC1=N/C(=C\c2ccc(Cl)cc2)C(=O)N1/C=C1\C(=O)Oc2ccccc2C1=O	> 100 µM	> 100 µM	> 100 µM	–	> 100 µM	–	> 100 µM	> 100 µM	> 100 µM	> 100 µM	> 100 µM	> 100 µM	> 100 µM	> 100 µM	> 100 µM	> 100 µM	> 100 µM	> 100 µM	> 100 µM	> 100 µM
COc1ccc(-c2cc3ccccc3oc2=O)cc1OC	> 100 µM	> 100 µM	> 100 µM	> 100 µM	–	> 100 µM	> 100 µM	> 100 µM	> 100 µM	> 100 µM	> 100 µM	> 100 µM	> 100 µM	> 100 µM	> 100 µM	> 100 µM	> 100 µM	> 100 µM	> 100 µM	> 100 µM
CN1C(=O)C2CCCC(=O)N2c2cccnc21 (centres undefined)	> 100 µM	> 100 µM	> 100 µM	> 100 µM	> 100 µM	> 100 µM	> 100 µM	> 100 µM	> 100 µM	> 100 µM	> 100 µM	> 100 µM	> 100 µM	> 100 µM	> 100 µM	–	> 100 µM	> 100 µM	> 100 µM	> 100 µM
CCOC(=O)c1sc2c(c1OC(=O)c1ccc(OC)cc1)c(=O)n(-c1ccccc1)c(=S)n2-c1ccccc1	> 100 µM	> 100 µM	> 100 µM	–	> 100 µM	> 100 µM	> 100 µM	> 100 µM	> 100 µM	> 100 µM	> 100 µM	> 100 µM	> 100 µM	> 100 µM	> 100 µM	> 100 µM	> 100 µM	> 100 µM	54.2 µM	> 100 µM
CCCC(=O)N1CCN(c2ccc3c(c2)OC(C)O3)CC1 (centres undefined)	> 100 µM	> 100 µM	> 100 µM	> 100 µM	> 100 µM	> 100 µM	> 100 µM	> 100 µM	> 100 µM	> 100 µM	> 100 µM	> 100 µM	> 100 µM	> 100 µM	> 100 µM	> 100 µM	> 100 µM	> 100 µM	> 100 µM	–
CCSC1=N/C(=C\c2ccc(N(C)C)cc2)C(Cl)=N1	> 100 µM	> 100 µM	> 100 µM	> 100 µM	> 100 µM	> 100 µM	> 100 µM	> 100 µM	> 100 µM	> 100 µM	> 100 µM	> 100 µM	–	> 100 µM	> 100 µM	> 100 µM	> 100 µM	> 100 µM	> 100 µM	> 100 µM
COc1cccc(C2c3cc4c(cc3OC(C)(N3CCCC3)C2C)OCO4)c1 (centres undefined)	22 µM	4.02 µM	59.8 µM	39.9 µM	26.4 µM	37.2 µM	82.3 µM	32.1 µM	64 µM	20.6 µM	> 100 µM	> 100 µM	37.2 µM	37.9 µM	15 µM	13.9 µM	48.6 µM	> 100 µM	27.4 µM	–
CCOC(=O)[C@H](C)OC(=O)[C@@](C)(NC(=O)c1ccccc1C(=O)OC)[C@@H]1NC=C(C(=O)OC)CS1	> 100 µM	64.6 µM	> 100 µM	> 100 µM	> 100 µM	> 100 µM	> 100 µM	> 100 µM	> 100 µM	> 100 µM	> 100 µM	> 100 µM	–	> 100 µM	> 100 µM	> 100 µM	> 100 µM	> 100 µM	> 100 µM	> 100 µM
Cn1c2c(c3ccccc31)CCN1C(=O)CN(C(=O)C3CCCCC3)CC21 (centres undefined)	> 100 µM	> 100 µM	–	> 100 µM	> 100 µM	> 100 µM	> 100 µM	> 100 µM	> 100 µM	> 100 µM	> 100 µM	> 100 µM	> 100 µM	> 100 µM	> 100 µM	> 100 µM	> 100 µM	> 100 µM	> 100 µM	> 100 µM
CCOC(=O)NNC(=O)NCCCCNC(=O)NNC(=O)OCC	> 100 µM	> 100 µM	> 100 µM	> 100 µM	> 100 µM	> 100 µM	> 100 µM	> 100 µM	> 100 µM	> 100 µM	> 100 µM	> 100 µM	> 100 µM	> 100 µM	> 100 µM	> 100 µM	> 100 µM	–	> 100 µM	> 100 µM
CC(C)C(C/C=C1\CC(CO)(COC(=O)C(C)(C)C)OC1=O)C(C)C (centres undefined)	26.4 µM	17.6 µM	21.7 µM	18.3 µM	31 µM	21.1 µM	24.4 µM	16.6 µM	34.9 µM	20.4 µM	14.7 µM	26 µM	20.9 µM	29.4 µM	49.6 µM	29.8 µM	19.8 µM	27.7 µM	21.7 µM	–
COCOC1C=CCCCC2=CC(C)=C(CC1)O2 (centres undefined)	> 100 µM	> 100 µM	> 100 µM	> 100 µM	> 100 µM	> 100 µM	> 100 µM	> 100 µM	–	> 100 µM	> 100 µM	> 100 µM	> 100 µM	> 100 µM	> 100 µM	> 100 µM	> 100 µM	> 100 µM	> 100 µM	> 100 µM
Cc1cc(C(F)(F)F)cc(-n2nc(NS(=O)(=O)c3cc(C)c(Cl)cc3S)nc2N)n1	> 100 µM	> 100 µM	> 100 µM	–	70.7 µM	> 100 µM	> 100 µM	> 100 µM	> 100 µM	> 100 µM	> 100 µM	> 100 µM	–	> 100 µM	> 100 µM	> 100 µM	> 100 µM	> 100 µM	> 100 µM	> 100 µM
O=c1oc2c/c(=C\c3ccc([N+](=O)[O-])cc3)c(=O)c3cccc1c3-2	> 100 µM	> 100 µM	–	> 100 µM	> 100 µM	72.1 µM	> 100 µM	> 100 µM	> 100 µM	> 100 µM	> 100 µM	> 100 µM	–	> 100 µM	> 100 µM	> 100 µM	> 100 µM	> 100 µM	> 100 µM	> 100 µM
CC(C)(C)OC/C=C(/CO)[C@@H]1C=C[C@H](O)C1	> 100 µM	> 100 µM	> 100 µM	> 100 µM	> 100 µM	–	> 100 µM	> 100 µM	> 100 µM	> 100 µM	> 100 µM	> 100 µM	> 100 µM	–	> 100 µM	> 100 µM	> 100 µM	> 100 µM	> 100 µM	> 100 µM
FC(F)(F)c1ccc2c(c1)nc(-c1ccc(Cl)cc1)n2CC1CCCN2CCCCC12 (centres undefined)	33.6 µM	29.9 µM	33.3 µM	22.9 µM	31.4 µM	28.5 µM	27.9 µM	29.5 µM	39.8 µM	28.6 µM	27 µM	31.2 µM	28.8 µM	27.8 µM	19 µM	28 µM	26 µM	27.5 µM	20.3 µM	–
O=C(Cn1c(-c2ccccc2)cc2ccccc21)N1CCCC1	> 100 µM	> 100 µM	–	> 100 µM	> 100 µM	–	> 100 µM	> 100 µM	> 100 µM	> 100 µM	> 100 µM	> 100 µM	–	> 100 µM	> 100 µM	> 100 µM	> 100 µM	> 100 µM	> 100 µM	–
O=C(CC(C(=O)c1ccsc1)c1ccccc1)c1ccccc1 (centres undefined)	> 100 µM	> 100 µM	> 100 µM	> 100 µM	> 100 µM	> 100 µM	> 100 µM	80 µM	> 100 µM	> 100 µM	> 100 µM	–	> 100 µM	> 100 µM	> 100 µM	> 100 µM	> 100 µM	> 100 µM	–	> 100 µM
Cc1ncc([N+](=O)[O-])n1CCNCCCCn1ccnc1[N+](=O)[O-]	> 100 µM	> 100 µM	> 100 µM	> 100 µM	> 100 µM	> 100 µM	> 100 µM	> 100 µM	> 100 µM	> 100 µM	> 100 µM	–	> 100 µM	> 100 µM	> 100 µM	> 100 µM	> 100 µM	> 100 µM	> 100 µM	> 100 µM
CCOC(=O)Cc1ccc(Nc2nc3ccccc3nc2C(=O)OCC)cc1	> 100 µM	> 100 µM	> 100 µM	41.3 µM	> 100 µM	> 100 µM	> 100 µM	> 100 µM	> 100 µM	> 100 µM	> 100 µM	41 µM	> 100 µM	> 100 µM	> 100 µM	> 100 µM	> 100 µM	> 100 µM	–	–
CCOc1nnnc2nc[nH]c12	> 100 µM	> 100 µM	> 100 µM	> 100 µM	> 100 µM	> 100 µM	–	> 100 µM	> 100 µM	> 100 µM	> 100 µM	–	> 100 µM	> 100 µM	> 100 µM	> 100 µM	> 100 µM	> 100 µM	> 100 µM	> 100 µM
